Drawing on PubChem BioAssay (NCI), this text covers TGI and GI50 for nine compounds.

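Test compounds were applied to cells in 96-well plates for 48 hours at 5 doses. GI50: concentration for 50% inhibition of growth. TGI marks complete inhibition of growth.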 Some results are limits rather than exact numbers.

Some test systems named below: OVCAR-3 ovarian; MCF7 breast; NCI-H226 lung; DU-145 prostate; U251 CNS; NCI-H522 lung; MALME-3M melanoma; HS 578T breast; SK-MEL-28 melanoma; CCRF-CEM leukemia.
Common to all, as to experiment: inhibition of tumour cell growth, NCI panel, 48 h

Consider `O=c1c2ccccc2[se]n1-c1cccnc1`, for which the TGI in the experiment on OVCAR-3 ovarian is over 100 µM; in the experiment with MCF7 breast, 80.6 µM; in the experiment on NCI-H226 lung it was over 100 µM; in the experiment on DU-145 prostate, 34.6 µM; with U251 CNS, 76 µM; with NCI-H522 lung it was 55.4 µM. Moreover, the results for the TGI in the experiment with MALME-3M melanoma, in the experiment on HS 578T breast and in the experiment with SK-MEL-28 melanoma were 50.7 µM, 42.1 µM and 81 µM, respectively.
For the compound `O=C(Nc1ccc(OS(=O)(=O)c2ccccc2)cc1)C12CC3CC(CC(C3)C1)C2`, the GI50 is 3.26 µM with MCF7 breast; 3.73 µM with CCRF-CEM leukemia; 27.7 µM in the experiment with NCI-H226 lung; over 100 µM in the experiment with DU-145 prostate; 4.81 µM with U251 CNS; 4.36 µM in the experiment on NCI-H522 lung. The GI50 is over 100 µM in the experiment on MALME-3M melanoma, 7.29 µM in the experiment on HS 578T breast and over 100 µM with SK-MEL-28 melanoma. Moreover, the TGI in the experiment with MCF7 breast, with CCRF-CEM leukemia, in the experiment on NCI-H226 lung, in the experiment with DU-145 prostate, with U251 CNS and with NCI-H522 lung was over 100 µM in each case. Moreover, the TGI with MALME-3M melanoma, in the experiment with HS 578T breast and with SK-MEL-28 melanoma was over 100 µM each time.
On to `Ic1ccc(Nc2nc3nonc3nc2Nc2ccc(I)cc2)cc1`, for which the GI50 with OVCAR-3 ovarian was 0.214 µM; in the experiment on MCF7 breast, 0.225 µM; in the experiment with CCRF-CEM leukemia, 0.145 µM; in the experiment on DU-145 prostate it was 0.365 µM; in the experiment on U251 CNS, 0.324 µM; in the experiment with MALME-3M melanoma, 0.167 µM. The GI50 in the experiment with HS 578T breast is 0.329 µM. For the same compound, the TGI with OVCAR-3 ovarian is over 100 µM; in the experiment on MCF7 breast, over 100 µM; with CCRF-CEM leukemia it was over 100 µM; in the experiment with DU-145 prostate, over 100 µM; with U251 CNS it was over 100 µM; in the experiment on MALME-3M melanoma, 0.604 µM. Moreover, the TGI in the experiment with HS 578T breast stood at 2.21 µM.
On to `NC(=NCCCOc1ccc(Cl)cc1)Nc1ccc(C(F)(F)F)cc1`, for which the GI50 is 2.26 µM in the experiment with OVCAR-3 ovarian; 1.72 µM in the experiment on MCF7 breast; 2.59 µM in the experiment on CCRF-CEM leukemia; 3.87 µM in the experiment on NCI-H226 lung; 2.62 µM in the experiment on DU-145 prostate; 1.71 µM with U251 CNS. Also, the GI50 is 1.75 µM with NCI-H522 lung, 1.93 µM in the experiment with MALME-3M melanoma and 3.35 µM in the experiment on HS 578T breast. The TGI with OVCAR-3 ovarian came out at 6.14 µM; with MCF7 breast it was 4.85 µM; in the experiment on CCRF-CEM leukemia it was 9.75 µM; in the experiment on NCI-H226 lung, 19.2 µM; in the experiment with DU-145 prostate it was 7.26 µM; in the experiment with U251 CNS, 3.89 µM. Moreover, the TGI in the experiment with NCI-H522 lung is 4.41 µM; with MALME-3M melanoma, 4.01 µM; with HS 578T breast, 18.8 µM.
For the compound `COC(C)(C)C1=CCC(C)CC1` (configuration not stated), the TGI in the experiment on OVCAR-3 ovarian, in the experiment on MCF7 breast, in the experiment on DU-145 prostate, in the experiment on U251 CNS, with NCI-H522 lung and in the experiment with MALME-3M melanoma was over 100 µM each time. The TGI with HS 578T breast and with SK-MEL-28 melanoma was over 100 µM each time.
On to `C[C@H]1c2cccc(O)c2C(O)=C2C(=O)[C@]3(O)C(O)=C(C(N)=O)C(=O)[C@@H](N(C)C)[C@@H]3[C@@H](O)[C@@H]21`, for which the GI50 in the experiment on OVCAR-3 ovarian is 2.5 µM; with MCF7 breast, 3.51 µM; in the experiment on NCI-H226 lung, 3.72 µM; in the experiment with DU-145 prostate, 3.61 µM; in the experiment with U251 CNS, 2.98 µM; in the experiment with NCI-H522 lung it was 3.16 µM. Besides, the figures for the GI50 with MALME-3M melanoma, in the experiment on HS 578T breast and in the experiment on SK-MEL-28 melanoma were 2.76 µM, 3.42 µM and 4.14 µM, respectively. Further, the TGI with OVCAR-3 ovarian worked out at 6.85 µM; with MCF7 breast it was 28.2 µM; with NCI-H226 lung, 25.7 µM; in the experiment with DU-145 prostate it was 12.5 µM; with U251 CNS it was 11.9 µM; with NCI-H522 lung, 12.4 µM. Also, the TGI in the experiment on MALME-3M melanoma worked out at 8.57 µM; in the experiment on HS 578T breast, 27 µM; in the experiment on SK-MEL-28 melanoma, 16.4 µM.
Regarding `OCCN1CN(CCO)CN(c2nc(N3CN(CCO)CN(CCO)C3)nc(N3CN(CCO)CN(CCO)C3)n2)C1`, the GI50 in the experiment on OVCAR-3 ovarian was 2.2 ng/mL; in the experiment on NCI-H522 lung, 1.04 ng/mL; in the experiment on HS 578T breast it was 3.08 ng/mL. For the same compound, the TGI was 6300 ng/mL in the experiment with OVCAR-3 ovarian; 0.69 ng/mL in the experiment with MCF7 breast; 0.63 ng/mL with NCI-H226 lung; 2.91 ng/mL in the experiment with NCI-H522 lung; 9.43 ng/mL in the experiment on HS 578T breast.
In the case of `CCN1CCN(c2ccc(Nc3cc(N(C)C(=O)Nc4c(Cl)c(OC)cc(OC)c4Cl)ncn3)cc2)CC1`, the GI50 in the experiment with OVCAR-3 ovarian is 5.67 µM; in the experiment on MCF7 breast it was 2.41 µM; in the experiment on CCRF-CEM leukemia, 1.9 µM; in the experiment on DU-145 prostate it was 2.33 µM; in the experiment on U251 CNS, 1.47 µM; with NCI-H522 lung, 5.21 µM. Besides, the GI50 was 1.82 µM in the experiment on MALME-3M melanoma, 1.34 µM with HS 578T breast and 1.87 µM in the experiment on SK-MEL-28 melanoma. For the same compound, the TGI turned out to be 15.9 µM in the experiment on OVCAR-3 ovarian; 11.8 µM in the experiment on MCF7 breast; 6.01 µM in the experiment on CCRF-CEM leukemia; 9.75 µM in the experiment with DU-145 prostate; 3.71 µM in the experiment with U251 CNS; 10.9 µM in the experiment with NCI-H522 lung. Further, the TGI in the experiment with MALME-3M melanoma was 3.5 µM; with HS 578T breast, 9.2 µM; in the experiment on SK-MEL-28 melanoma, 3.46 µM.
Take `COc1ccc(N(C)c2ncnc3occ(C)c23)cc1`: the GI50 in the experiment with MCF7 breast is under 0.01 µM; in the experiment with NCI-H226 lung, under 0.01 µM; with DU-145 prostate, under 0.01 µM; with U251 CNS it was under 0.01 µM; in the experiment on NCI-H522 lung it was under 0.01 µM; in the experiment with MALME-3M melanoma, 38.7 µM. In addition, the GI50 with HS 578T breast and with SK-MEL-28 melanoma was under 0.01 µM throughout. Moreover, the TGI with MCF7 breast is over 100 µM; in the experiment on NCI-H226 lung, 0.0761 µM; in the experiment on DU-145 prostate, 0.0208 µM; in the experiment with U251 CNS, 11.9 µM; with NCI-H522 lung, under 0.01 µM; in the experiment on MALME-3M melanoma it was over 100 µM. Besides, the TGI in the experiment on HS 578T breast is under 0.01 µM; in the experiment on SK-MEL-28 melanoma, over 100 µM.
